# Experimental data from ChEMBL document CHEMBL5032491, “New Dibenzoquinoxalines Inhibit Triple-Negative Breast Cancer Growth by Dual Targeting of Topoisomerase 1 and the c-MYC G-Quadruplex” (J Med Chem, 2021).
# Active and inactive are the calls of the source. The rule behind the calls is not given here.
# Tests used:
# Quadruplex DNA [1] = test: Inhibition of c-myc G4-quadruplex DNA transcriptional activity in human MDA-MB-231 cells incubated for 24 hrs by RT-PCR analysis; assay type: cell-based
# [2] = target: T1, DNA topoisomerase 1 (Homo sapiens) (UniProt P11387); test: Inhibition of human topoisomerase 1 mediated relaxation of supercoiled pHOT1 DNA at 5 to 20 uM incubated for 30 mins by agarose gel electrophoresis; details: dose 5-20 µM
# T1 sequence (whole entry): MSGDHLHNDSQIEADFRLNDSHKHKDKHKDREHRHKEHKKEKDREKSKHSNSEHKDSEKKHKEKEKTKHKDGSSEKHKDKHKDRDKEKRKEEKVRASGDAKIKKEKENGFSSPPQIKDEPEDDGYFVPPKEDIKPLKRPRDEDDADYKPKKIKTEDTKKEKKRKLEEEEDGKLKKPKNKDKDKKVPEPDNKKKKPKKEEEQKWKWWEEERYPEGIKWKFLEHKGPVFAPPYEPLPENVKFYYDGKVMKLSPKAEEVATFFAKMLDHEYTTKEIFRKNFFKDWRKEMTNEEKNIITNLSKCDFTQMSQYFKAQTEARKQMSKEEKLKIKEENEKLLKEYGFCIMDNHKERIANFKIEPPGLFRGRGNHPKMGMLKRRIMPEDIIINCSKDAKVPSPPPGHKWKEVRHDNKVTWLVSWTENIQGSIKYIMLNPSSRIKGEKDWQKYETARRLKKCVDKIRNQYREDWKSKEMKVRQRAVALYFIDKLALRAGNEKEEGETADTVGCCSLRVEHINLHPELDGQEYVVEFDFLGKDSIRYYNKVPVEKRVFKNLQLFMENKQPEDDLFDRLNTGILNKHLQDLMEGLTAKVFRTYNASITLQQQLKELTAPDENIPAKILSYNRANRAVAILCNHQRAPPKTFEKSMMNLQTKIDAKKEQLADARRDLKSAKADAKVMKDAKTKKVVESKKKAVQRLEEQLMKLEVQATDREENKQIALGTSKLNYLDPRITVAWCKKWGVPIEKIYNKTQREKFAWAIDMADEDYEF
# MDA-MB-231 [3] = test: Antiproliferative activity against human MDA-MB-231 cells assessed as inhibition of cell growth incubated for 24 hrs by CCK8 assay; assay type: functional, cell-based; details: for IC50: MDA-MB-231, 24 h
# MDA-MB-231 [4] = test: Inhibition of c-Myc gene transcription expression in human MDA-MB-231 cells at 0.5 to 2 uM incubated for 24 hrs by RT-PCR analysis; assay type: functional, cell-based; details: dose 0.5-2 µM
# MDA-MB-231 [5] = test: Induction of cell cycle arrest in human MDA-MB-231 cells assessed as accumulation at G0/G1 phase at 1 uM incubated for 24 hrs by flow cytometry (reference value: 56.6%); assay type: functional
# Quadruplex DNA [6] = test: Binding affinity to c-myc G4-quadruplex DNA Pu22 (unknown origin) by NMR spectroscopy; assay type: nucleic-acid assay
# Calf thymus DNA [7] = test: Binding affinity to duplex calf thymus DNA assessed as dissociation constant; assay type: nucleic-acid assay, Bos taurus
# [8] = Antiproliferative activity against human BJ fibroplast assessed as inhibition of cell growth incubated for 24 hrs by CCK8 assay; details: Fibroblast
# CA46 [9] = test: Downregulation of EXON 1 transcription in human CA46 cells incubated for 24 hrs by RT-PCR analysis; assay type: functional, cell-based
# MDA-MB-231 [10] = test: Antiproliferative activity against human MDA-MB-231 cells assessed as inhibition in cell growth at 2.5 uM incubated for 24 hrs by CCK8 assay; assay type: functional, cell-based
# Calf thymus DNA [11] = test: Binding affinity to duplex calf thymus DNA assessed as dissociation constant by fluorescence spectroscopy; assay type: nucleic-acid assay, Bos taurus
# MDA-MB-231 [12] = test: Antitumor activity against human MDA-MB-231 cells xenografted in ip dosed BALB/c mouse assessed as tumor growth inhibition administered every other day for 20 days; assay type: functional, organism-based; details: dose 2.5-5 […], time 20.0 day
# MDA-MB-231 [13] = test: Induction of cell cycle arrest in human MDA-MB-231 cells assessed as accumulation at sub-G1 phase at 0.5 uM incubated for 24 hrs by flow cytometry (reference value: 2.8%); assay type: functional
# Quadruplex DNA [14] = test: Stabilization of c-Myc G-quadruplex DNA (unknown origin ) assessed as increase in melting temperature at 6 uM by CD spectroscopy; assay type: nucleic-acid assay
# [15] = target: T1, DNA topoisomerase 1 (Homo sapiens); test: Poison activity at human topoisomerase 1 assessed as formation of cleavage complex using pHOT-1 DNA as substrate incubated for 30 mins by agarose gel electrophoresis
# MDA-MB-231 [16] = test: Induction of cell cycle arrest in human MDA-MB-231 cells assessed as accumulation at sub-G1 phase at 2 uM incubated for 24 hrs by flow cytometry (reference value: 2.8%); assay type: functional
# MDA-MB-231 [17] = test: Induction of cell cycle arrest in human MDA-MB-231 cells assessed as accumulation at S phase at 1 uM incubated for 24 hrs by flow cytometry (reference value: 19.2%); assay type: functional
# CA46 [18] = test: Downregulation of EXON 2 transcription in human CA46 cells incubated for 24 hrs by RT-PCR analysis; assay type: functional, cell-based
# MDA-MB-231 [19] = test: Inhibition of HRAS gene transcription expression in human MDA-MB-231 cells at 0.5 to 2 uM incubated for 24 hrs by RT-PCR analysis; assay type: functional, cell-based; details: dose 0.5-2 µM
# MDA-MB-231 [20] = test: Induction of cell cycle arrest in human MDA-MB-231 cells assessed as accumulation at G0/G1 phase at 2 uM incubated for 24 hrs by flow cytometry (reference value: 56.6%); assay type: functional
# [21] = target: T1, DNA topoisomerase 1 (Homo sapiens); test: Inhibition of human topoisomerase 1 assessed as DNA intercalation at 1.2 to 10 uM using relaxed pHOT-1 DNA as substrate preincubated with DNA for 10 mins followed by enzyme addition and measured after 30 mins by agarose gel electrophoresis; details: dose 1.2-10 µM, time 40.0 min
# MDA-MB-231 [22] = test: Antitumor activity against human MDA-MB-231 cells xenografted in BALB/c mouse assessed as tumor growth inhibition measured at 5 mg/kg, IP administered every other day for 20 days; assay type: functional; details: MDA-MB-231, ip, 480 h, time 20 day, read-out: TGI
# MDA-MB-231 [23] = test: Induction of cell cycle arrest in human MDA-MB-231 cells assessed as accumulation at G2/M phase at 0.5 uM incubated for 24 hrs by flow cytometry (reference value: 20.4%); assay type: functional
# MDA-MB-231 [24] = test: Induction of cell cycle arrest in human MDA-MB-231 cells assessed as accumulation at S phase at 0.5 uM incubated for 24 hrs by flow cytometry (reference value: 19.2%); assay type: functional
# MDA-MB-231 [25] = test: Induction of cell cycle arrest in human MDA-MB-231 cells assessed as accumulation at G2/M phase at 2 uM incubated for 24 hrs by flow cytometry (reference value: 20.4%); assay type: functional
# Quadruplex DNA [26] = test: Binding affinity to c-myc G4-quadruplex DNA (unknown origin) at 1 uM in presence of ct-DNA by fluorescence spectroscopy; assay type: nucleic-acid assay
# MDA-MB-231 [27] = test: Induction of DNA damage in human MDA-MB-231 cells assessed as increase in gammaH2AX incubated for 24 hrs by western blotting analysis; assay type: functional, cell-based
# [28] = Toxicity in human MDA-MB-231 cells xenografted BALB/c mouse assessed as body weight loss at 2.5 to 5 mg/kg, ip administered every other day for 20 days; assay type: organism-based; details: in vivo, 480 h, dose 2.5-5 mg/kg, time 20 day
# MDA-MB-231 [29] = test: Induction of cell cycle arrest in human MDA-MB-231 cells assessed as accumulation at S phase at 2 uM incubated for 24 hrs by flow cytometry (reference value: 19.2%); assay type: functional
# Quadruplex DNA [30] = test: Binding affinity to c-myc G4-quadruplex DNA (unknown origin) assessed as dissociation constant by fluorescence spectroscopy; assay type: nucleic-acid assay
# CA46 [31] = test: Downregulation of c-MYC transcription expression in human CA46 cells incubated for 24 hrs by RT-PCR analysis; assay type: functional, cell-based
# MDA-MB-231 [32] = test: Induction of cell cycle arrest in human MDA-MB-231 cells assessed as accumulation at sub-G1 phase at 1 uM incubated for 24 hrs by flow cytometry (reference value: 2.8%); assay type: functional
# MDA-MB-231 [33] = test: Anticlonogenic activity against human MDA-MB-231 cells assessed as inhibition of colony formation incubated for 7 days by crystal violet staining based assay; assay type: functional, cell-based; details: time 7.0 day
# MDA-MB-231 [34] = test: Induction of cell cycle arrest in human MDA-MB-231 cells assessed as accumulation at G0/G1 phase at 0.5 uM incubated for 24 hrs by flow cytometry (reference value: 56.6%); assay type: functional
# MDA-MB-231 [35] = test: Inhibition of BCL-2 gene transcription expression in human MDA-MB-231 cells at 0.5 to 2 uM incubated for 24 hrs by RT-PCR analysis; assay type: functional, cell-based; details: dose 0.5-2 µM
# MDA-MB-231 [36] = test: Inhibition of cell migration in human MDA-MB-231 cells incubated for 24 hrs by wound scrape assay; assay type: functional, cell-based
# MDA-MB-231 [37] = test: Inhibition of c-Myc protein expression in human MDA-MB-231 cells at 0.5 to 2 uM incubated for 24 hrs by Western blot analysis; assay type: functional, cell-based; details: dose 0.5-2 µM
# Quadruplex DNA [38] = test: Binding affinity to c-myc G4-quadruplex DNA (unknown origin) by UV-Vis spectrophotometric method; assay type: nucleic-acid assay
# MDA-MB-231 [39] = test: Inhibition of VEGF gene transcription expression in human MDA-MB-231 cells at 0.5 to 2 uM incubated for 24 hrs by RT-PCR analysis; assay type: functional, cell-based; details: dose 0.5-2 µM
# MDA-MB-231 [40] = test: Antitumor activity against human MDA-MB-231 cells xenografted in BALB/c mouse assessed as tumor growth inhibition measured at 2.5 mg/kg, ip administered every other day for 20 days; assay type: functional; details: MDA-MB-231, ip, 480 h, time 20 day, read-out: TGI
# MDA-MB-231 [41] = test: Induction of cell cycle arrest in human MDA-MB-231 cells assessed as accumulation at G2/M phase at 1 uM incubated for 24 hrs by flow cytometry (reference value: 20.4%); assay type: functional
# [42] = target: T1, DNA topoisomerase 1 (Homo sapiens); test: Inhibition of human topoisomerase 1 assessed as DNA intercalation at 1.2 uM using relaxed pHOT-1 DNA as substrate preincubated with DNA for 10 mins followed by enzyme addition and measured after 30 mins by agarose gel electrophoresis; details: time 40.0 min
compound,measurement,setting,value
CN1CCN(c2ccc(-c3nc4cc(F)c(F)cc4nc3-c3ccc(N4CCN(C)CC4)cc3)cc2)CC1,inhibition,Quadruplex DNA [1],Active
same,inhibition,[2],inactive
same,IC50,MDA-MB-231 [3],1.9 µM
CN1CCN(c2ccc3c(c2)c2cc(N4CCN(C)CC4)ccc2c2nc4ccccc4nc32)CC1,inhibition,Quadruplex DNA [1],Active
same,inhibition,[2],Active
same,IC50,MDA-MB-231 [3],1.1 µM
CN1CCN(c2ccc3c(c2)c2cc(N4CCN(C)CC4)ccc2c2nc4cc(C(F)(F)F)ccc4nc32)CC1,inhibition,Quadruplex DNA [1],inactive
same,inhibition,[2],inactive
same,IC50,MDA-MB-231 [3],5.6 µM
COc1ccc2nc3c4ccc(N5CCN(C)CC5)cc4c4cc(N5CCN(C)CC5)ccc4c3nc2c1,inhibition,MDA-MB-231 [4],Active
same,Activity,MDA-MB-231 [5],50%
same,inhibition,Quadruplex DNA [1],Active
same,Activity,Quadruplex DNA [6],Active
same,Kd,Calf thymus DNA [7],8.3 µM
same,IC50,[8],5.6 µM
same,Activity,CA46 [9],Active
same,Activity,MDA-MB-231 [10],Active
same,Kd,Calf thymus DNA [11],12.7 µM
same,inhibition,[2],Active
same,Activity,MDA-MB-231 [12],Dose-Dependent Effect
same,Activity,MDA-MB-231 [13],3.1%
same,Tm,Quadruplex DNA [14],30 °C
same,Activity,[15],inactive
same,Activity,MDA-MB-231 [16],20.2%
same,Activity,MDA-MB-231 [17],20.4%
same,Activity,CA46 [18],inactive
same,inhibition,MDA-MB-231 [19],inactive
same,Activity,MDA-MB-231 [20],38.9%
same,inhibition,[21],Active
same,inhibition in vivo at 5 mg/kg,MDA-MB-231 [22],66%
same,Activity,MDA-MB-231 [23],21.7%
same,Activity,MDA-MB-231 [24],20.3%
same,Activity,MDA-MB-231 [25],21.2%
same,Activity,Quadruplex DNA [26],Active
same,Activity,MDA-MB-231 [27],Active
same,Activity,[28],Non-Toxic
same,Activity,MDA-MB-231 [29],16.6%
same,Kd,Quadruplex DNA [30],0.6 µM
same,Activity,CA46 [31],inactive
same,Activity,MDA-MB-231 [32],4.7%
same,Activity,MDA-MB-231 [33],Dose-Dependent Effect
same,Activity,MDA-MB-231 [3],Dose-Dependent Effect
same,Activity,MDA-MB-231 [34],54.4%
same,inhibition,MDA-MB-231 [35],inactive
same,inhibition,MDA-MB-231 [36],Active
same,inhibition,MDA-MB-231 [37],inactive
same,Activity,Quadruplex DNA [38],Active
same,inhibition,MDA-MB-231 [39],inactive
same,inhibition in vivo at 2.5 mg/kg,MDA-MB-231 [40],52%
same,Activity,MDA-MB-231 [41],24.9%
CN1CCN(c2ccc3c(c2)c2cc(N4CCN(C)CC4)ccc2c2nc4cc(Oc5ccccc5)ccc4nc32)CC1,inhibition,Quadruplex DNA [1],inactive
same,inhibition,[2],inactive
same,IC50,MDA-MB-231 [3],2.2 µM
CC[n+]1c(-c2ccccc2)c2cc(N)ccc2c2ccc(N)cc21,inhibition,[42],Active
CN1CCN(c2ccc3c(c2)c2cc(N4CCN(C)CC4)ccc2c2nc4cc5c(cc4nc32)N(C)CCN5C)CC1,inhibition,Quadruplex DNA [1],inactive
same,IC50,MDA-MB-231 [3],3.1 µM
